Test results as given in patent EP1137632B1, “THIOUREA INHIBITORS OF HERPES VIRUSES” (Wyeth, priority 1998, dated 2000).
≈ marks a conversion by molar mass, not a printed value.

Tests used:
HSV-1 = experiment: HSV antiviral (ELISA) assay in Vero cells; assay type: cell-based, herpes simplex virus type 1; details: Human alphaherpesvirus 1; HSV-1 in Vero cells; read-out: IC50 (ug/ml) HSV
Description: HSV antiviral (ELISA) assay
Vero cells (ATCC #CCL-81) are plated on 96-well tissue culture plates at 3.5x10^4 cells per 100µl tissue culture DMEM (Dulbecco's modified Eagle media) supplemented with 2% fetal bovine serum (FBS) in each well. After overnight incubation @ 37°C (in 5% CO2) and 30 minutes prior to infection with HSV-1 (multiplicity of infection equal to 0.006), cells are either untreated, or treated with test compound (multiple concentrations) or reference standard drug control. After approximately 24 hours post-infection incubation @ 37°C (in 5% CO2), cells are fixed for ELISA assay. The primary antibody is murine anti-HSV glycoprotein D monoclonal primary antibody and the secondary antibody is goat anti-mouse IgG linked to β-galactosidase. Thus the extent of viral replication is determined by assessing β-galactosidase activity by quantifying the generation of the 4-methyl umbelliferone fluorescent cleavage product after addition of the methyl umbelliferyl-β-D-galactoside (Sigma #M1633) substrate on a microfluorimeter (365nm for excitation and 450nm for emission). Antiviral activity (IC50) of the test compound is determined by comparing the flourescence obtained in absence of compound to that obtained in the presence of compound.

[1] = tested on: HCMV recombinant mutant virus; experiment: microbe, parasite or virus in culture; assay type: cell-based, human cytomegalovirus; details: Human betaherpesvirus 5, read-out: IC50 (ug/ml) HCMV
Excerpt: Microtiter plate assay. Ninety-six well plate cultures of human foreskin fibroblasts are infected in the presence of inhibitor compound with a HCMV recombinant mutant virus whose genome contains the prokaryotic beta-glucuronidase gene (Jefferson, R. A., S. M. Burgess, and D. Hirsh. 1986. Beta-glucuronidase from Escherichia coli as a gene fusion marker. Proc. Natl. Acad. Sci. USA 83:8447-8451) whose expression is controlled by a viral promoter. An example of such a virus is RV145 (Jones, T. R., V. P. Muzithras, and Y. Gluzman. 1991. Replacement mutagenesis of the human cytomegalovirus genome: US10 and US11 gene products are nonessential. J. Virol. 65:5860-5872). Since it is under the control of a viral promoter, beta-glucuronidase expression is an indirect indicator of growth and replication of HCMV in this assay. At 96 hours post-infection, the infected cell lysates are prepared (using 50mM sodium phosphate [pH7.0] containing 0.1 % Triton X-100 and 0.1% sarkosyl) and assayed for beta-glucuronidase activity using a substrate for the enzyme which when cleaved yields either a product which can be measured colorimetrically in a spectrophotometer or fluorescently in a microfluorimeter. Examples of such substrates are p-nitrophenyl-beta-D-glucuronide and methylumbelliferylglucuronide, respectively. The presence of an antiviral compound is indicated by the reduced expression of the HCMV genome resident beta-glucuronidase gene, compared to the absence of inhibitor. […] Data from this assay generated using varying amounts of inhibitor compound is also used to estimate the IC50 of an inhibitor compound.

VZV strain Ellen = experiment: VZV antiviral (ELISA) assay in human foreskin fibroblast cells; assay type: cell-based, varicella-zoster virus; details: Human alphaherpesvirus 3; VZV strain Ellen in HFF cells; read-out: IC50 (ug/ml) VZV
Description: VZV antiviral (ELISA) assay
For the generation of stock VZV to be used in the assay, VZV strain Ellen (ATCC #VR-1367) is used to infect human foreskin fibroblast (HFF) cells at low multiplicity (less than 0.1) and incubated overnight at 37°C in 5% CO2. After the overnight incubation, the mixture of uninfected and VZV-infected HFF infected cells are then harvested and added to each well of 96-well plates (3.5x10^4 cells in 100 µl DMEM supplemented with 2% FBS) which contain test compound or the reference standard drug control (in 100µl DMEM supplemented with 2% FBS per well). These cells are incubated for three days at 37°C in 5% CO2, then fixed for ELISA assay. The primary antibody is murine anti-VZV glycoprotein II monoclonal antibody (Applied Biosystems, Inc. #13-145-100) and the secondary antibody is goat anti-mouse IgG linked to β-galactosidase. Thus the extent of viral replication is determined by assessing β-galactosidase activity by quantifying the generation of the 4-methyl umbelliferone fluorescent cleavage product after addition of the methyl umbelliferyl-β-D-galactoside (Sigma #M1633) substrate on a microfluorimeter (365nm for excitation and 450nm for emission). Antiviral activity (IC50) of the test compound is determined by comparing the flourescence obtained in absence of compound to that obtained in the presence of compound.

| Structure (SMILES) | IC50 (HSV-1) | IC50 [1] | IC50 (VZV strain Ellen) |
| --- | --- | --- | --- |
| Cc1c(C)c(NC(=S)NC(C)c2ccc(F)cc2)c(C)c(C)c1NC(=O)c1ccccc1F (stereo not drawn) [Example 1023, 2-Fluoro-N-(4-{3-[1-(4-fluoro-phenyl)-ethyl]-thioureido}-2,3,5,6-tetramethyl-phenyl)-benzamide] | > 10 µg/mL | 9 µg/mL (≈ 19.2 µM) | 10 µg/mL (≈ 21.4 µM) |
| COc1cc(NC(=S)NC(C)c2ccc(C#N)cc2)c(OC)cc1NC(=O)c1ccccc1F (stereo not drawn) [Example 1024, N-(4-{3-[1-(4-Cyano-phenyl)-ethyl]-thioureido}-2,5-dimethoxy-phenyl)-2-fluoro-benzamide] | > 10 µg/mL | > 10 µg/mL | > 10 µg/mL |
| COc1cc(NC(=S)NC(C)c2ccc(F)cc2)c(OC)cc1NC(=O)c1ccccc1F (stereo not drawn) [Example 1025, 2-Fluoro-N-(4-{3-[1-(4-fluoro-phenyl)-ethyl]-thioureido}-2,5-dimethoxy-phenyl)-benzamide] | > 10 µg/mL | > 10 µg/mL | > 10 µg/mL |
| COc1cc(OC)c(NC(=S)Nc2c(Cl)cc(NC(=O)c3ccccc3F)cc2Cl)cc1Cl [Example 1026, N-{3,5-Dichloro-4-[3-(5-chloro-2,4-dimethoxy-phenyl)-thioureido]-phenyl}-2-fluoro-benzamide] | 0.15 µg/mL (≈ 0.284 µM) | > 10 µg/mL | > 10 µg/mL |
| Cc1cc(NC(=O)c2cc(F)c(F)cc2F)ccc1NC(=S)NC(C)c1ccc(F)cc1 (stereo not drawn) [Example 1029, 2,4,5-Trifluoro-N-(4-{3-[1-(4-fluoro-phenyl)-ethyl]-thioureido}-3-methyl-phenyl)-benzamide] | > 10 µg/mL | > 10 µg/mL | 0.53 µg/mL (≈ 1.15 µM) |
| COc1cc(NC(=S)NC(C)c2ccc(F)cc2)c(C)cc1NC(=O)c1ccccc1F (stereo not drawn) [Example 1031, 2-Fluoro-N-(4-{3-[1-(4-fluoro-phenyl)-ethyl]-thioureido}-2-methoxy-5-methyl-phenyl)-benzamide] | > 10 µg/mL | > 10 µg/mL | 0.7 µg/mL (≈ 1.54 µM) |
| CC(NC(=S)Nc1cc(Br)c(NC(=O)c2ccccc2F)c(Br)c1)c1ccc(F)cc1 (stereo not drawn) [Example 1033, N-(2,6-Dibromo-4-{3-[1-(4-fluoro-phenyl)-ethyl]-thioureido}-phenyl)-2-fluoro-benzamide] | 7 µg/mL (≈ 12.3 µM) | 3.8 µg/mL (≈ 6.68 µM) | 0.039 µg/mL (≈ 0.0685 µM) |
| CC(NC(=S)Nc1ccc(NC(=O)c2ccccc2F)c(C(F)(F)F)c1)c1ccc(F)cc1 (stereo not drawn) [Example 1034, 2-Fluoro-N-(4-{3-[1-(4-fluoro-phenyl)-ethyl]-thioureido}-2-trifluoromethyl-phenyl)-benzamide] | > 10 µg/mL | 2.6 µg/mL (≈ 5.42 µM) | 0.03 µg/mL (≈ 0.0626 µM) |
| CC(NC(=S)Nc1ccc(NC(=O)c2ccccc2F)c(C(F)(F)F)c1)c1ccc(Br)cc1 (stereo not drawn) [Example 1035, N-(4-{3-[1-(4-Bromo-phenyl)-ethyl)-thioureido}-2-trifluoromethyl-phenyl)-2-fluoro-benzamide] | 3.1 µg/mL (≈ 5.74 µM) | 2.3 µg/mL (≈ 4.26 µM) | 0.032 µg/mL (≈ 0.0592 µM) |
| CC(NC(=S)Nc1ccc(NC(=O)c2ccccc2F)c(C(F)(F)F)c1)c1ccc(C#N)cc1 (stereo not drawn) [Example 1036, N-(4-{3-[1-(4-Cyano-phenyl)-ethyl]-thioureido}-2-trifluoromethyl-phenyl)-2-fluoro-benzamide] | 4 µg/mL (≈ 8.22 µM) | 2.1 µg/mL (≈ 4.32 µM) | 0.31 µg/mL (≈ 0.637 µM) |
| CC(NC(=S)Nc1ccc(NC(=O)c2ccccc2F)c(C(F)(F)F)c1)c1cc2ccccc2o1 (stereo not drawn) [Example 1037, N-{4-[3-(1-Benzofuran-2-yl-ethyl)-thioureido]-2-trifluoromethyl-phenyl}-2-fluoro-benzamide] | 3.6 µg/mL (≈ 7.18 µM) | 2 µg/mL (≈ 3.99 µM) | 0.027 µg/mL (≈ 0.0538 µM) |
| CC(NC(=S)Nc1ccc(NC(=O)c2ccccc2F)c(Cl)c1)c1ccc(F)cc1 (stereo not drawn) [Example 1038, N-(2-Chloro-4-{3-[1-(4-fluoro-phenyl)-ethyl]-thioureido}-phenyl)-2-fluoro-benzamide] | 3 µg/mL (≈ 6.73 µM) | 3.5 µg/mL (≈ 7.85 µM) | 0.04 µg/mL (≈ 0.0897 µM) |
| CC(NC(=S)Nc1ccc(NC(=O)c2ccccc2F)c(Cl)c1)c1ccc(C#N)cc1 (stereo not drawn) [Example 1039, N-(2-Chloro-4-{3-[1-(4-cyano-phenyl)-ethyl]-thioureido}-phenyl)-2-fluoro-benzamide] | 7.2 µg/mL (≈ 15.9 µM) | 1.3 µg/mL (≈ 2.87 µM) | 0.25 µg/mL (≈ 0.552 µM) |
